One assay deals with T1, human factor Xa (Homo sapiens, UniProt P00742).
T1 construct: from tissue
The assay is described as follows: Activity of factor Xa obtained by RVV activation of factor X in normal human blood plasma on substrate (split product H-R5 released). The assay is classed as biochemical. Conditions: substrate concentration 2 × 10^-4; TRIS-imidazole buffer pH 8.4, ionic strength 0.3, 37° C.; citrated plasma activated with Russel viper venom 75 seconds; value calculated for 1 ml of citrated plasma. The procedure:
(§1) The values of the factor Xa activity given in Table 4 were determined experimentally in the manner described hereinafter:
For determining the activity of human factor Xa 0.01 ml of normal citrated plasma was mixed with 0.20 ml of a solution of Russel viper venom in TRIS-imidazole buffer having a pH of 8.4 and an ionic strength of 0.3 and containing 15 mmoles of CaCl2 […]. The mixture was incubated for 75 seconds at 37° C. in order to activate factor X present in the plasma and convert it completely into factor Xa. To the incubate there was added first 1.40 ml of TRIS-imidazole buffer (pH 8.4, ionic strength 0.3) heated to 37° C. and then 0.40 ml of a 2×10^-3 M aqueous solution of a substrate of the invention. Thereafter, the quantity of split produce H--R^5 in nanomoles released per minute was determined, and the corresponding value for 1 ml of citrated plasma was calculated.

In another assay the target is T2, bovine factor Xa (Bos taurus, UniProt P00743).
T2 construct: purchased Diagnostic Reagents Ltd., Thame, Great Britain factor Xa preparation "Diagen"
Briefly: Activity of bovine factor Xa solution on chromogenic/fluorogenic substrate (split product H-R5 released). It is filed as biochemical. The settings on record: substrate concentration 2 × 10^-4; TRIS-imidazole buffer pH 8.4, ionic strength 0.3, 37° C.; factor Xa preparation "Diagen"; value calculated for 1 ml of factor Xa solution. How it is done: as §1
For determining the activity of bovine factor Xa 1.8 ml of TRIS-imidazole buffer having a pH of 8.4 and an ionic strength of 0.3 was well mixed at 37° C. with 0.025 ml of an aqueous solution of factor Xa preparation "Diagen" (furnisher: Diagnostic Reagents Ltd., Thame, Great Britain) obtained by dissolving the contents of one vial in 0.5 ml of water. To the mixture there was added 0.2 ml of a 2×10^-3 M aqueous solution of a substrate of the invention. Thereafter, the quantity of split product H--R^5 in nanomoles released per minute was determined, and the corresponding value of 1 ml of factor Xa solution was calculated.

Square brackets hold non-standard residues; d marks the D form. Peptide text beside a SMILES is read from it. * marks the point of attachment. dAad = N[C@H](CCCC(=O)O)C(=O)O; pNA = O=[N+]([O-])c1ccc(N*)cc1; Cbz = O=C(OCc1ccccc1)*

T1 sequence (P00742 235-488 limits assumed): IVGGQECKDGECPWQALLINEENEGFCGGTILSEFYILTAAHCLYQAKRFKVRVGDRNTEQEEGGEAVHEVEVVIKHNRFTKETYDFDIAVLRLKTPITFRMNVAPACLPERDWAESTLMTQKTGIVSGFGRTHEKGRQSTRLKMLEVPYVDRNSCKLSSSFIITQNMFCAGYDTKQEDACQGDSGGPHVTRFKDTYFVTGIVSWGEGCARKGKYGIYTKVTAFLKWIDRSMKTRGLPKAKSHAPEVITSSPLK
T1 sequence (P00742 41-179 partner limits assumed): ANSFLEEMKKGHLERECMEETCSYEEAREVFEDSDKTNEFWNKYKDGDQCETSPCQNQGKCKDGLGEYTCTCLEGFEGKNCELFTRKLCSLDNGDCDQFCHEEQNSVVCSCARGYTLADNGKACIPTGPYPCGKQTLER
T2 sequence (P00743 234-492 limits assumed): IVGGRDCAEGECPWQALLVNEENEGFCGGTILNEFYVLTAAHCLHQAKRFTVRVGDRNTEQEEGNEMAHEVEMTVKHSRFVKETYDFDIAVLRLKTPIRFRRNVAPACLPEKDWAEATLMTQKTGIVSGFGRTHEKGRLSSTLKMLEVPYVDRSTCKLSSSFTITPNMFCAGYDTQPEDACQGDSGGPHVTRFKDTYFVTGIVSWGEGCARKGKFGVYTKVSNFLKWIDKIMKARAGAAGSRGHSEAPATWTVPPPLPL
T2 sequence (P00743 41-180 partner limits assumed): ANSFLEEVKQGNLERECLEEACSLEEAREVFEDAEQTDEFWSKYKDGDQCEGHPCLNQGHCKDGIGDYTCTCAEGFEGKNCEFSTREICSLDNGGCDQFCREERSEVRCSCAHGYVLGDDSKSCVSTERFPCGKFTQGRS

For the compound “2-(4-Cbo-- amino)-phenylacetyl-D-Nval--Gly--Arg--pNA.HBr [Example 53]”, the “Activity of factor Xa as obtained by activation of factor X in 1 ml of normal human blood plasma by means of RVV, expressed in nanomoles of split product H--R^5 released per minute” value (from here on “Activity of factor Xa as obtained … per minute”) on human factor Xa is reported as 510 nanomoles of split product H--. For the same compound, the “Activity of 1 ml of aqueous solution of bovine factor Xa, expressed in nanomoles of split product H--R^5 released per minute” value (from here on “Activity of 1 ml … per minute”) on bovine factor Xa was 680 nanomoles of split product H--.

Regarding “4-Aminomethyl-cyclohexyl-carbonyl-bonyl-D-Leu--Sar--Arg--pNA.2HBr [Example 43]”, the “Activity of factor Xa as obtained … per minute” value on human factor Xa is 30 nanomoles of split product H--. Further, the “Activity of 1 ml … per minute” value at bovine factor Xa is recorded as 60 nanomoles of split product H--.

As for “BOC--D-(α)-AOA--Gly--Arg--pNA.AcOH [Example 84]”, at human factor Xa, the “Activity of factor Xa as obtained … per minute” value was 1690 nanomoles of split product H--. In addition, on bovine factor Xa, the “Activity of 1 ml … per minute” value is given as 2210 nanomoles of split product H--.

For the compound `N=C(N)NCCC[C@H](NC(=O)CNC(=O)[C@@H](CCCC(=O)O)NC(=O)OCc1ccccc1)C(=O)Nc1ccc([N+](=O)[O-])cc1` [Example 102, Cbo--D-Aadi--Gly--Arg--pNA] (Cbz-[dAad]-Gly-Arg-pNA), the “Activity of factor Xa as obtained … per minute” value on human factor Xa was 905 nanomoles of split product H--. For the same compound, the “Activity of 1 ml … per minute” value on bovine factor Xa is 1030 nanomoles of split product H--.

As for “Cbo--4-aminomethyl-cyclohexyl-carbonyl-D-Leu--176 Sar--Arg--pNA.HBr [Example 42]”, the “Activity of factor Xa as obtained … per minute” value at human factor Xa is 20 nanomoles of split product H--. The “Activity of 1 ml … per minute” value at bovine factor Xa is recorded as 30 nanomoles of split product H--.

On to `N=C(N)NCCC[C@H](NC(=O)CNC(=O)[C@@H](CCC(=O)O)NC(=O)OCc1ccccc1)C(=O)Nc1ccc([N+](=O)[O-])cc1` [Example 96, Cbo--D-Glu--Gly--Arg--pNA] (Cbz-[dE]-Gly-Arg-pNA), for which, on human factor Xa, the “Activity of factor Xa as obtained … per minute” value is listed as 505 nanomoles of split product H--. Besides, on bovine factor Xa, the “Activity of 1 ml … per minute” value is 830 nanomoles of split product H--.
